Literature values, collected in patent publication US20050101548A1, “Antimicrobial derivatives” (priority 2003, published 2005).

What was measured:
[1] = tested on: macrolide-sensitive and resistant bacteria

SMILES	antibacterial activity against S. pneumoniae (S. pneumoniae)	further results
C=C1CO[C@@H]2[C@@H](C)/C(=N/C(C)=O)[C@H](C)C[C@@](C)(OC1)[C@H](O[C@@H]1O[C@H](C)C[C@H](N(C)C)[C@H]1O)[C@@H](C)C(=O)[C@@H](C)C(=O)O[C@H](CC)[C@@]2(C)O [EP-1304]	–	activity against some macrolide-sensitive and resistant bacteria in vivo [1]: exhibits activity
CC[C@H]1OC(=O)[C@H](C)C(=O)[C@H](C)[C@@H](O[C@@H]2O[C@H](C)C[C@H](N(C)C)[C@H]2O)[C@@]2(C)C[C@@H](C)/C(=N\C(C)=O)[C@H](C)[C@@H](OCC(=NOCc3ccccc3)CO2)[C@]1(C)O [EP-1562]	possess antibacterial activity	–
CC[C@H]1OC(=O)[C@H](C)C(=O)[C@H](C)[C@@H](O[C@@H]2O[C@H](C)C[C@H](N(C)C)[C@H]2O)[C@@]2(C)C[C@@H](C)/C(=N\C(C)=O)[C@H](C)[C@@H](OCC(=NOCc3ccc(-c4cccnc4)s3)CO2)[C@]1(C)O [EP-12728]	possess antibacterial activity	–
CC[C@H]1OC(=O)[C@H](C)[C@@H](O[C@H]2C[C@@](C)(OC)[C@@H](O)[C@H](C)O2)[C@H](C)[C@@H](O[C@@H]2O[C@H](C)C[C@H](N(C)C)[C@H]2O)[C@](C)(O)C[C@@H](C)C(=O)[C@H](C)[C@@H](O)[C@]1(C)O [erythromycin A]	–	activity against Gram-negative bacteria (Gram-negative bacteria): only weak activity
